# Source: patent US20250099626A1, “COMPOSITIONS AND METHODS FOR OXONOL DYES WITH NEAR INFRARED FLUORESCENCE” (Washington University, priority 2023, published 2025)
# How the values were obtained:
# [1] = Absorption and fluorescence emission spectra of the dyes in solvent; format: physicochemical; conditions: for Emission max, nm: excitation 700 nm
# Method: Absorption spectra were recorded on a Beckman Coulter DU 640 UV-visible spectrophotometer (Brea, CA) and fluorescence spectra were recorded on a Fluorolog-3 spectrofluorometer (Horiba Jobin Yvon, Inc., Edison, NJ). All fluorescence measurements were conducted at room temperature and were recorded at excitation of 700 nm and emission scan from 715-900 nm.
# [2] = Fluorescence lifetime (FLT) by time-correlated single photon counting; format: physicochemical
# Method: Fluorescence lifetimes (FLT) were measured using time-correlated single photon counting (TCSPC implemented in Fluorolog-3, Horiba Jobin Yvon) with a 700 nm excitation source NanoLed® (impulse repetition rate 1 MHz) at 90° to the PMT R928P detector (Hamamatsu Photonics, Japan). […] We chose DMSO as the solvent for this study because it provides a similar environment to the biological systems. The detector was set to 740 nm with a 20 nm bandpass and data were collected until the peak signal reached 10,000 counts.
# [3] = Relative fluorescence quantum yield using ICG as a standard; format: physicochemical; conditions: DMSO
# Method: The absorption spectra of 4 and 15 were measured in both methanol (FIG. 4(A-B)) and DMSO (FIG. 5(A-D)). […] The broad emission bands allow flexibility in the choice of excitation and fluorescence wavelengths in analytical and biological assays. The relative fluorescence quantum yields of dyes 4 and 15 measured in DMSO using ICG as a standard show the values of 0.24 and 0.093 respectively compared to 0.12 for ICG.
# [4] = Solubility in water; format: physicochemical
# [5] = tested on: SKBR3-GFP-Luc cells; test: Cellular fluorescence intensity imaging (NIR channel) of dye uptake; format: cell-based, human; conditions: 5 μM, 24 h incubation
# Method: SKBR3-GFP-Luc cells (Dual labeled stable SK-BR-3 expressing green fluorescent protein (GFP) and luciferase, SL032, GeneCopoeia, Rockville, MD) were cultured in Dulbecco's Modified Eagle Medium (DMEM high glucose, Gibco) supplemented with 10% Fetal Bovine Serum (FBS), 1% penicillin/streptomycin and 5 μg/mL puromycin, and maintained in a humidified incubator at 37° C. with 5% CO2 atmosphere. For imaging experiments, these GFP labeled HER2+ human breast cancer cells were plated in Fluorobrite DMEM media (Gibco) supplemented with 10% FBS and 1% pen/strep in an 8-well chamber slide (6.0×10^4 cells in 200 μL media per well). […] All cells were washed with DPBS (300 μL×2) before mounting (Fluoromount-G, #1 coverslip) and imaging the slides with either a Zeiss AxioImager Z2 fluorescence microscope or FLIM.
# Fluorescence intensity imaging was conducted on a Zeiss Axioimager.Z2 microscope equipped with a Hamamatsu ORCA Flash 4.0 V2 camera, X-Cite Xylis LED-based light source, and 20× Zeiss Plan-Apochromat air objective (0.8 N.A.) The imaging parameters included DAPI: excitation 335-383 nm/emission 420-470 nm/exposure time […] GFP: ex 450-490 nm/500-550 nm/46 ms exposure and NIR: ex 715-752 nm/760-855 nm/1 s exposure. […]
# [6] = DMSO; reference value of ICG standard; cited from earlier work
SMILES,"Abs max, nm ([1]; DMSO)","Emission max, nm ([1]; DMSO)","Abs max, nm ([1]; Methanol)","Emission max, nm ([1]; Methanol)","Fluorescent lifetime, ns ([2]; DMSO, 700 nm excitation, detector 740 nm)","Fluorescent lifetime, ns ([2]; Methanol)",Quantum yield (relative fluorescence quantum yield) [3],Solubility in water [4],Cellular internalization / uptake judged by signal intensity in NIR channel [5],Fluorescence quantum yield of the standard [6]
O=c1cc2/c(=C/C=C/C=C/c3c4c5c(cc(O)cc5oc3=O)OC(O)=C4)c(=O)oc3cc(O)cc(o1)c32 [Dye 4],719 nm,744 nm,704 nm,731 nm,0.65 ns,0.28 ns,0.24,low solubility in water,essentially no appreciable uptake,–
"CC1(C)C(/C=C/C=C/C=C/C=C2\N(CCCCS(=O)(=O)O)c3ccc4ccccc4c3C2(C)C)=[N+](CCCCS(=O)(=O)[O-])c2ccc3ccccc3c21 [ICG, indocyanine green]",–,–,–,–,–,–,–,–,–,0.12
